Assay results: patent publication US20240018125A1, “CYCLIC ISOTHIOUREA DERIVATIVES AS CXCR4 MODULATORS” (ERMIUM THERAPEUTICS, priority 2020, published 2024)
Where a name gives a salt, the structure may show the parent alone.

Tested on: peripheral blood mononuclear cells (PBMCs) from healthy donors
Experiment: IFN production by R848-activated PBMCs, quantified with twINNE luciferase reporter cell line
Assay type: cell-based, human
Conditions: Homo sapiens, PBMC; read-out: IC50 of anti-inflammatory activity (IFN production by activated PBMCs)
Procedure, shortened: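 Functional IFN was quantified by luciferase output from the twINNE ISRE-reporter line after 24 h on conditioned supernatants. Those supernatants came from human PBMCs (4.10^6/mL) pre-treated with compound and then stimulated for 24 h with 5 μg/mL resiquimod. IC50s were fitted by nonlinear variable-slope regression.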

Row | SMILES | IC50 [µM]
1 | Clc1ccc(C2CN3C(CSC4=NCc5ccccc5N4)=CSC3=N2)cc1 (stereo not drawn) [Example 14, 6-(4-chlorophenyl)-3-(((3,4-dihydroquinazolin-2-yl)thio)methyl)-5,6-dihydroimidazo[2,1-b]thiazole dihydrochloride] | ≤ 10
2 | Clc1ccc2c(c1)NC(SCCCCN1CCCC1)=NC2 [Example 150, 7-chloro-2-((4-(pyrrolidin-1-yl)butyl)thio)-1,4-dihydroquinazoline dihydrochloride] | ≤ 10
3 | CN1CCC(CCSC2=NCc3ccccc3N2)C1 (stereo not drawn) [Example 145, 2-((2-(1-methylpyrrolidin-3-yl)ethyl)thio)-1,4-dihydroquinazoline dihydrochloride] | 10 to 32
4 | Clc1cccc2c1CN1C(CSC3=NCc4ccccc4N3)=CSC1=N2 [Example 81, 6-chloro-3-(((1,4-dihydroquinazolin-2-yl)thio)methyl)-5H-thiazolo[2,3-b]quinazoline dihydrochloride] | ≤ 10
5 | c1ccc2c(c1)CN=C(SCCN1C[C@H]3C[C@@H]1CO3)N2 (stereo in doubt) [Example 146, (1R,4R)-5-(2-((1,4-dihydroquinazolin-2-yl)thio)ethyl)-2-oxa-5-azabicyclo[2.2.1]heptane dihydrochloride] | 10 to 32
6 | CC1(C)N=C(SCC2=CSC3=Nc4ccc(Cl)cc4CN23)Nc2ccccc21 [Example 75, 7-chloro-3-(((4,4-dimethyl-1,4-dihydroquinazolin-2-yl)thio)methyl)-5H-thiazolo[2,3-b]quinazoline dihydrochloride] | > 32
7 | c1ccc2c(c1)CN=C(SCCN1CCC3(CCCC3)C1)N2 [Example 142, 2-((2-(2-azaspiro[4.4]nonan-2-yl)ethyl)thio)-1,4-dihydroquinazoline dihydrochloride] | ≤ 10
8 | Clc1ccc2c(c1)CN=C(SCC1=CSC3=NCCN13)N2 [Example 10, 3-(((6-chloro-1,4-dihydroquinazolin-2-yl)thio)methyl)-5,6-dihydroimidazo[2,1-b]thiazole dihydrochloride] | ≤ 10
9 | O=C(CCCSC1=NCc2ccccc2N1)N1CCCC1 [Example 147, 4-((1,4-dihydroquinazolin-2-yl)thio)-1-(pyrrolidin-1-yl)butan-1-one hydrochloride] | > 32
10 | Fc1ccc(CC2CN3C(CSC4=NCc5ccccc5N4)=CSC3=N2)cc1 (stereo not drawn) [Example 196, 3-(((1,4-dihydroquinazolin-2-yl)thio)methyl)-6-(4-fluorobenzyl)-5,6-dihydroimidazo[2,1-b]thiazole dihydrochloride] | ≤ 10
11 | CC1(C)CN=C(SCCCCN2CCCC2)NC1 [Example 179, 5,5-dimethyl-2-((4-(pyrrolidin-1-yl)butyl)thio)-1,4,5,6-tetrahydropyrimidine dihydrochloride] | > 32
12 | CC1(C)N=C(SCCCCN2CCCC2)Nc2ccccc21 [Example 160, 4,4-dimethyl-2-((4-(pyrrolidin-1-yl)butyl)thio)-1,4-dihydroquinazoline dihydrochloride] | > 32
13 | Clc1cccc2c1NC(SCCCCN1CCCC1)=NC2 [Example 153, 8-chloro-2-((4-(pyrrolidin-1-yl)butyl)thio)-1,4-dihydroquinazoline dihydrochloride] | ≤ 10
14 | Brc1ccc2c(c1)N=C1SC=C(CSC3=NCc4ccccc4N3)N1C2 [Example 70, 8-bromo-3-(((1,4-dihydroquinazolin-2-yl)thio)methyl)-5H-thiazolo[2,3-b]quinazoline dihydrochloride] | ≤ 10
15 | CC1(C)c2ccccc2N=C2SC=C(CSC3=NCc4ccccc4N3)N21 [Example 95, 3-(((1,4-dihydroquinazolin-2-yl)thio)methyl)-5,5-dimethyl-5H-thiazolo[2,3-b]quinazoline dihydrochloride] | ≤ 10
16 | c1ccc2c(c1)CN=C(SCCN1C[C@@H]3C[C@H]1CO3)N2 (stereo in doubt) [Example 139, (1S,4S)-5-(2-((1,4-dihydroquinazolin-2-yl)thio)ethyl)-2-oxa-5-azabicyclo[2.2.1]heptane dihydrochloride] | 10 to 32
17 | CN1CC[C@H](SC2=NCCc3ccccc3N2)C1 [Example 200, (S)-2-((1-methylpyrrolidin-3-yl)thio)-4,5-dihydro-3H-benzo[d][1,3]diazepine dihydrochloride] | ≤ 10
18 | Clc1nccc2sc(CSC3=NCc4ccccc4N3)cc12 [Example 116, 4-chloro-2-(((1,4-dihydroquinazolin-2-yl)thio)methyl)thieno[3,2-c]pyridine dihydrochloride] | ≤ 10
19 | FC1(F)CCN(CCSC2=NCc3ccccc3N2)C1 [Example 125, 2-((2-(3,3-difluoropyrrolidin-1-yl)ethyl)thio)-1,4-dihydroquinazoline dihydrochloride] | 10 to 32
20 | c1ccc2c(c1)CN=C(SCCCCN1CCCC1)NC2 [Example 171, 3-((4-(pyrrolidin-1-yl)butyl)thio)-2,5-dihydro-1H-benzo[e][1,3]diazepine dihydrochloride] | > 32
21 | c1ccc2c(c1)CCN=C(SCc1ccncc1)N2 [Example 188, 2-((pyridin-4-ylmethyl)thio)-4,5-dihydro-1H-benzo[d][1,3]diazepine dihydrochloride] | 10 to 32
22 | C1=C(CSC2=NCc3ccccc3N2)N2CC(CCc3ccccc3)N=C2S1 (stereo not drawn) [Example 126, 3-(((1,4-dihydroquinazolin-2-yl)thio)methyl)-6-phenethyl-5,6-dihydroimidazo[2,1-b]thiazole dihydrochloride] | ≤ 10
23 | Clc1ccc2c(c1)CN1C(CSC3=NCc4ccc(Br)cc4N3)=CSC1=N2 [Example 66, 3-(((7-bromo-1,4-dihydroquinazolin-2-yl)thio)methyl)-7-chloro-5H-thiazolo[2,3-b]quinazoline dihydrochloride] | ≤ 10
24 | c1ccc(CC2CN=C(SCCCN3CCCC3)N2)cc1 (stereo not drawn) [Example 52, 5-benzyl-2-((3-(pyrrolidin-1-yl)propyl)thio)-4,5-dihydro-1H-imidazole dihydrochloride] | > 32
25 | Clc1ccc2c(c1)CN1C(CSC3=NCCN3)=CSC1=N2 [Example 4, 7-chloro-3-(((4,5-dihydro-1H-imidazol-2-yl)thio)methyl)-5H-thiazolo[2,3-b]quinazoline dihydrochloride] | ≤ 10
26 | C(CCN1CCCC1)CSC1=NCC2(CC2)N1 [Example 185, 5-((4-(pyrrolidin-1-yl)butyl)thio)-4,6-diazaspiro[2.4]hept-5-ene dihydrochloride] | > 32
27 | Clc1nccc2sc(CSC3=NCC(Cc4ccccc4)N3)cc12 (stereo not drawn) [Example 61, 2-(((5-benzyl-4,5-dihydro-1H-imidazol-2-yl)thio)methyl)-4-chlorothieno[3,2-c]pyridine dihydrochloride] | ≤ 10
28 | Fc1cccc2c1CN=C(SCC1=CSC3=NCc4ccccc4CN13)N2 [Example 23, 3-(((5-fluoro-1,4-dihydroquinazolin-2-yl)thio)methyl)-5,10-dihydrobenzo[e]thiazolo[3,2-a][1,3]diazepine dihydrochloride] | ≤ 10
29 | c1ccc2c(c1)CN=C(SCc1ccncc1)NC2 [Example 189, 3-((pyridin-4-ylmethyl)thio)-2,5-dihydro-1H-benzo[e][1,3]diazepine dihydrochloride] | > 32
30 | c1ccc2c(c1)CCN=C(SCCN1CCCC1)N2 [Example 182, 2-((2-(pyrrolidin-1-yl)ethyl)thio)-4,5-dihydro-1H-benzo[d][1,3]diazepine dihydrochloride] | 10 to 32
